Laboratory results: patent US11780830B2, “Triazolone derivatives or salts thereof and pharmaceutical compositions comprising the same” (YUHAN CORPORATION, priority 2018, dated 2023)
Structures can show the parent of a compound that is named as a salt.

What was measured:
Type in all cases: biochemical
[1] = biological target: T1, recombinant human MAO-A (monoamine oxidase-A) (Homo sapiens, UniProt P21397); test: Activity on recombinant human MAO-A, method similar to the VAP-1 assay; conditions: substrate 0.5 mM tyramine; read-out: Inhibitory Activity (IC50, nM) MAO-A
T1 construct: purchased Sigma-Aldrich
T1 sequence (P21397 1-527): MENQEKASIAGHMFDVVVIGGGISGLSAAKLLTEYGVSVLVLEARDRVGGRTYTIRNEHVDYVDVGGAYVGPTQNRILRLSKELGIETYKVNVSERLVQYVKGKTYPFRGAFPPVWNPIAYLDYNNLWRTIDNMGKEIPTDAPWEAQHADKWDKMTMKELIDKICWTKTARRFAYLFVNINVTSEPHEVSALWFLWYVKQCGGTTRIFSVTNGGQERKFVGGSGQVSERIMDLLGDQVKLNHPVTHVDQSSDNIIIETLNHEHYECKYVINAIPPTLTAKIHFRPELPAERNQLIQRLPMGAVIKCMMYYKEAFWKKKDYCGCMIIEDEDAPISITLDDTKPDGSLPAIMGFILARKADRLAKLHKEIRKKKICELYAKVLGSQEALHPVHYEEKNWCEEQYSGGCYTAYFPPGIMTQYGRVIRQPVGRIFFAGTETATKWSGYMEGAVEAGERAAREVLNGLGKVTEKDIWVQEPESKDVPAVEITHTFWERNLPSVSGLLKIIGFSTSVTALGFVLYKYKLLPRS
How it was run: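 Amplex Red/HRP coupled read-out of H2O2 with 0.5 mM tyramine for MAO-A or 1 mM benzylamine for MAO-B, following a 30-min compound–enzyme preincubation at 37° C. IC50 from percent inhibition of signal rate relative to uninhibited control.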

recombinant human VAP-1 = biological target: T2, recombinant human VAP-1 (Homo sapiens, UniProt Q16853); test: Activity on recombinant human VAP-1, HRP-coupled Amplex Red hydrogen peroxide assay; conditions: substrate 1 mM benzylamine; compound incubated with enzyme at 37° C. for 30 minutes; pH 7.4; read-out: Inhibitory Activity (IC50, nM) human VAP-1
T2 construct: purchased R&D systems
T2 sequence (Q16853 1-763): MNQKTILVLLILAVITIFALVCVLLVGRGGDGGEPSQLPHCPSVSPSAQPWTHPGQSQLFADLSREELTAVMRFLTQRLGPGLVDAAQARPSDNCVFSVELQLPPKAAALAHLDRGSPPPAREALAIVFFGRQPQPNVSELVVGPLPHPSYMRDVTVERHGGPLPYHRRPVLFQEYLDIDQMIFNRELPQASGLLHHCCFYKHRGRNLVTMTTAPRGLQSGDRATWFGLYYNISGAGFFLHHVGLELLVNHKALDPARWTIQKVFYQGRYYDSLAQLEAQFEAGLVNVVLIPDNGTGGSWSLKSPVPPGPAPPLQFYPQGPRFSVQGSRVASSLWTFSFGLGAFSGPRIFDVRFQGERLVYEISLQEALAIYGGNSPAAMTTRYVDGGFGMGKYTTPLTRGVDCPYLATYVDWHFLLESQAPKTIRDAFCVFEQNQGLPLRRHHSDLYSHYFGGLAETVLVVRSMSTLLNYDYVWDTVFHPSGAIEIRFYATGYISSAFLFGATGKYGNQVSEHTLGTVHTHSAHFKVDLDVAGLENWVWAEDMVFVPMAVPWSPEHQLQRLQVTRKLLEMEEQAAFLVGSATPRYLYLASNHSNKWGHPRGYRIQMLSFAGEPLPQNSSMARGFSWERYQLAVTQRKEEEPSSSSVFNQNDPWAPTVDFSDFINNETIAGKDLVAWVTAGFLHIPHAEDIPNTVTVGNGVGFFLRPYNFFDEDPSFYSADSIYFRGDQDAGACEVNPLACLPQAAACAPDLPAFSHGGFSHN
How it was run: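 Dose-response IC50 determined from reduction in resorufin signal rate (544/590 nm, 1-2 h), with 30 min compound preincubation at 37 °C and 1 mM benzylamine as substrate.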

[2] = biological target: T3, recombinant human DAO (diamine oxidase) (Homo sapiens, UniProt P19801); test: Activity on recombinant human DAO, method similar to the VAP-1 assay; conditions: substrate 1 mM putrescine; read-out: Inhibitory Activity (IC50, nM) DAO
T3 construct: purchased R&D systems
T3 sequence (P19801 20-751): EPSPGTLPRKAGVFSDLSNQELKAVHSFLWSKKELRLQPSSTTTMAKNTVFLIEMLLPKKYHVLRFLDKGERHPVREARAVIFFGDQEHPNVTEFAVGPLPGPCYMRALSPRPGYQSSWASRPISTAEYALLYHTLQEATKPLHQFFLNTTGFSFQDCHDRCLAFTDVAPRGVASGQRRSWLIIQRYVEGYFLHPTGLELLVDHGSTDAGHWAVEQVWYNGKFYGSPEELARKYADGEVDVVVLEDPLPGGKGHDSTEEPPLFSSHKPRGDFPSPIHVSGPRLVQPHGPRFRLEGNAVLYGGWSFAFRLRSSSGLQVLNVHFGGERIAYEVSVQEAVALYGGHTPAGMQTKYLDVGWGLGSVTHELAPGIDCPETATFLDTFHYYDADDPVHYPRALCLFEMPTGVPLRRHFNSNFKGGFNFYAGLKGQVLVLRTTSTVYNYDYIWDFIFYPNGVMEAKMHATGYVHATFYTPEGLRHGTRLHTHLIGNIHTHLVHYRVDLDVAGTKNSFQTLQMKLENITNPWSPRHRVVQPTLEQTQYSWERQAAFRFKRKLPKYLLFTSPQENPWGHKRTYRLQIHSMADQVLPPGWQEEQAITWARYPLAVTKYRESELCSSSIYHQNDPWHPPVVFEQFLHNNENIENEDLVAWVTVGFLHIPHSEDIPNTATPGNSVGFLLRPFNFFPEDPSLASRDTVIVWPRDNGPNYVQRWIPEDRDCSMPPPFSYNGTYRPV
How it was run: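 Inhibition of recombinant human diamine oxidase (DAO, R&D systems) was assessed by the same approach as the VAP-1 assay, using 1 mM putrescine as substrate. Hydrogen peroxide formed was detected through an HRP-coupled Amplex Red reaction yielding fluorescent resorufin, read at 544 nm excitation and 590 nm emission. IC50 values came from four-parameter logistic fitting in GraphPad Prism.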

[3] = biological target: T4, recombinant human MAO-B (monoamine oxidase-B) (Homo sapiens, UniProt P27338); test: Activity on recombinant human MAO-B, method similar to the VAP-1 assay; conditions: substrate 1 mM benzylamine; read-out: Inhibitory Activity (IC50, nM) MAO-B
T4 construct: purchased Sigma-Aldrich
T4 sequence (P27338 1-520): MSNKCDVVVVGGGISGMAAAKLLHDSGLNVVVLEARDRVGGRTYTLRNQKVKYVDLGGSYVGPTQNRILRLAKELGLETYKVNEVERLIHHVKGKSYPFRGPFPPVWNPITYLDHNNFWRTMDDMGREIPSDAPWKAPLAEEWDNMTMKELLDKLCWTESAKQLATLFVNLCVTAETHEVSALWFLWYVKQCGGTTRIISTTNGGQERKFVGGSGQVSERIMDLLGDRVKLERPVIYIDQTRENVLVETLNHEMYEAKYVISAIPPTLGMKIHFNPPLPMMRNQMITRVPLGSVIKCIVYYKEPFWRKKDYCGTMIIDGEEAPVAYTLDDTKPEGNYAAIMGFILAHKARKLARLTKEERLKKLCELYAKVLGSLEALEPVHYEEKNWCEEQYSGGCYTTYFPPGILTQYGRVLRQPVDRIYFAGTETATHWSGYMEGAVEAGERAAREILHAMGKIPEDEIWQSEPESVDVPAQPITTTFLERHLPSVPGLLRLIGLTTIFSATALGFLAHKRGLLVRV
Protocol: The compounds according to the present technology were evaluated in terms of activity on recombinant human VAP-1 (R&D systems) by measuring the level of hydrogen peroxide in horseradish peroxidase (HRP)-coupled reaction using Amplex Red Hydrogen Peroxide Assay Kit (Molecular Probes, Invitrogen, USA). The experiment was carried out at room temperature using benzylamine as a substrate. In the HRP-coupled reaction, hydrogen peroxide oxidation of 10-acetyl-3,7-dihydroxyphenoxazine (Amplex Red reagent) produces resorufin, which is a highly fluorescent compound. Briefly, the test compound was dissolved in dimethyl sulfoxide (DMSO) at a concentration of 20 mM. The dose-response assessment was made by 1:3 serial dilution in DMSO, thereby creating an 8 point curve. The concentration of the upper part was controlled according to the efficacy of the compounds, followed by dilution with a reaction buffer solution to obtain a final DMSO concentration less than 1%. To each well of a 96 black well plate, human VAP-1 purified in 50 mM sodium phosphate buffer solution (pH7.4) was added. The test compounds dissolved in DMSO were incubated with the human VAP-1 enzymes at 37° C. for 30 minutes. After 30-minute incubation, each well is added with a reaction mixture containing 200 uM Amplex Red reagent prepared from 50 mM sodium phosphate buffer solution (pH 7.4), 1 mM benzylamine, and 1 U/mL HRP. Fluorescence intensity was measured at several time points during 1-2 hours using a microplate reader (Flexstation3, Molecular Devices) under the wavelength condition exciting at 544 nm and reading the emission at 590 nm. The inhibitory effect of the compounds was measured as a decrease (%) in the signal rate as compared to the control group without any inhibitor (only diluted DMSO). Data was fixed to a logistic model with four variables and IC50 value was calculated using GraphPad Prism program.
In addition, the compounds according to the present technology were evaluated in terms of activity on a recombinant human MAO-A (monoamine oxidase-A, Sigma-Aldrich) and a recombinant human MAO-B (monoamine oxidase-B, Sigma-Aldrich) by using as substrates, 0.5 mM tyramine and 1 mM benzylamine, respectively, with a method similar to the activity evaluation method for recombinant human VAP-1. The compounds according to the present technology were also evaluated in terms of activity on a recombinant human DAO (diamine oxidase, R&D systems) by using as a substrate 1 mM putrescine with a method similar to the activity evaluation method for recombinant human VAP-1.

SMILES | IC50 [1] [nM] | IC50 (recombinant human VAP-1) [nM] | IC50 [2] [nM] | IC50 [3] [nM]
COCCOc1ccc(-c2ccc(Cn3cnn(C/C(=C/F)CN)c3=O)s2)cc1 [Example 19, 2-[(2E)-2-(aminomethyl)-3-fluoroprop-2-en-1-yl]-4-(5-[4-(2-methoxyethoxy)phenyl]thiophen-2-ylmethyl)-2,4-dihydro-3H-1,2,4-triazol-3-one hydrochloride] | > 100000 | 4.6 | 1800 | 1100
NC/C(=C\F)Cn1ncn(Cc2ccc(-c3ccc(N4CCCC4)cc3)s2)c1=O [Example 20, 2-[(2E)-2-(aminomethyl)-3-fluoroprop-2-en-1-yl]-4-(5-[4-(pyrrolidin-1-yl)phenyl]thiophen-2-ylmethyl)-2,4-dihydro-3H-1,2,4-triazol-3-one hydrochloride] | 6600 | 5 | 2700 | 730
NC/C(=C\F)Cn1ncn(Cc2ccc(-c3ccc(N4CCCC4=O)cc3)s2)c1=O [Example 21, 2-[(2E)-2-(aminomethyl)-3-fluoroprop-2-en-1-yl]-4-(5-[4-(2-oxopyrrolidin-1-yl)phenyl]thiophen-2-ylmethyl)-2,4-dihydro-3H-1,2,4-triazol-3-one hydrochloride] | > 100000 | 2 | 1300 | 3000
NC/C(=C\F)Cn1ncn(Cc2ccc(-c3ccc(N4CCNCC4)cc3)s2)c1=O [Example 22, 2-[(2E)-2-(aminomethyl)-3-fluoroprop-2-en-1-yl]-4-(5-[4-(piperazin-1-yl)phenyl]thiophen-2-ylmethyl)-2,4-dihydro-3H-1,2,4-triazol-3-one hydrochloride] | > 100000 | 6.4 | 2400 | 2600
NC/C(=C\F)Cn1ncn(Cc2ccc(-c3cccc(N4CCNCC4)c3)s2)c1=O [Example 23, 2-[(2E)-2-(aminomethyl)-3-fluoroprop-2-en-1-yl]-4-(5-[3-(piperazin-1-yl)phenyl]thiophen-2-ylmethyl)-2,4-dihydro-3H-1,2,4-triazol-3-one hydrochloride] | > 100000 | 2.5 | 3200 | 300
CC(=O)N1CCN(c2ccc(-c3ccc(Cn4cnn(C/C(=C/F)CN)c4=O)s3)cc2)CC1 [Example 24, 4-(5-[4-(4-acetylpiperazin-1-yl)phenyl]thiophen-2-ylmethyl)-2-[(2E)-2-(aminomethyl)-3-fluoroprop-2-en-1-yl]-2,4-dihydro-3H-1,2,4-triazol-3-one hydrochloride] | 21000 | 1.4 | 670 | > 10000
NC/C(=C\F)Cn1ncn(Cc2ccc(-c3ccc(C4CCOCC4)cc3)s2)c1=O [Example 25, 2-[(2E)-2-(aminomethyl)-3-fluoroprop-2-en-1-yl]-4-(5-[4-(tetrahydro-2H-pyran-4-yl)phenyl]thiophen-2-ylmethyl)-2,4-dihydro-3H-1,2,4-triazol-3-one hydrochloride] | > 100000 | 3.1 | 690 | 1300
NC/C(=C\F)Cn1ncn(Cc2ccc(-c3ccc(C(=O)N4CCOCC4)cc3)s2)c1=O [Example 27, 2-[(2E)-2-(aminomethyl)-3-fluoroprop-2-en-1-yl]-4-(5-[4-(morpholin-4-ylcarbonyl)phenyl]thiophen-2-ylmethyl)-2,4-dihydro-3H-1,2,4-triazol-3-one hydrochloride] | > 100000 | 1.1 | 470 | 18000
